How the values were obtained:
VIM-1 = VIM-1 (Pseudomonas aeruginosa, UniProt A0A0F7KYQ8); experiment: Enzyme activity: determination of IC50, fluorescence assay with CCF2-FA substrate; type: biochemical; conditions: VIM-1 enzyme 30 pM, CCF2-FA 1.25 μM, 2 hours at 25° C.; read-out: VIM1 IC50
Outline: (§1)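 100 mM KH2PO4 pH 7 + 0.005% Tween-20 + 10 μM ZnSO4; CCF2-FA 1.25 μM; NDM-1 1 pM, IMP-1 2 pM, VIM-1 30 pM; cpd 20–0.00063 μM final, DMSO 1:50. 2 h, 25° C. Ex 405/em 460 nm; IC50, 4-param fit.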

NDM-1 = NDM-1 (Klebsiella pneumoniae, UniProt C7C422); experiment: as above; type: biochemical; conditions: NDM-1 enzyme 1 pM, CCF2-FA 1.25 μM, 2 hours at 25° C.; read-out: NDM1 IC50
Outline: as §1

IMP-1 = IMP-1 (Serratia marcescens, UniProt P52699); experiment: as above; type: biochemical; conditions: IMP-1 enzyme 2 pM, CCF2-FA 1.25 μM, 2 hours at 25° C.; read-out: IMP1 IC50
Outline: as §1

[1] = tested on: Escherichia coli expressing NDM-1 (CLB30016); experiment: Antibiotic potentiation activity: synergistic concentration (MITC95) with imipenem, growth by OD600; type: cell-based; conditions: E. coli CLB30016 (NDM-1), 95% inhibition of growth
Outline: (§2)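 MITC95 = lowest inhibitor concentration giving 95% growth inhibition, read by absorbance after 22–24 h at 35° C. Compound range 200 μM to 0.195 μM, imipenem fixed at 1 or 4 μg/ml, bacteria in 1.1×CAMHB from saline suspension diluted 1:100.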

[2] = tested on: Serratia marcescens expressing IMP-1 (CL5741); experiment: as above; type: cell-based; conditions: S. marcescens CL5741 (IMP-1), 95% inhibition of growth
Outline: as §2

[3] = tested on: Klebsiella pneumoniae expressing VIM-1 (IHMA599644); experiment: as above; type: cell-based; conditions: K. pneumoniae IHMA599644 (VIM-1), 95% inhibition of growth
Outline: as §2

Chain of NDM-1 (C7C422 29-270, looked up, species assumed): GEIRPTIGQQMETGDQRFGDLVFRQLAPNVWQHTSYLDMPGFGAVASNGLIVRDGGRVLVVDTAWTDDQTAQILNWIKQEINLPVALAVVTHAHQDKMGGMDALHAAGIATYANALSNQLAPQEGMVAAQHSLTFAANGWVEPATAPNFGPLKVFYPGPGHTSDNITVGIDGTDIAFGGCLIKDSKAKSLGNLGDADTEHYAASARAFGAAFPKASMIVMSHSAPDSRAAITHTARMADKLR
Chain of IMP-1 (P52699 19-246, looked up, species assumed): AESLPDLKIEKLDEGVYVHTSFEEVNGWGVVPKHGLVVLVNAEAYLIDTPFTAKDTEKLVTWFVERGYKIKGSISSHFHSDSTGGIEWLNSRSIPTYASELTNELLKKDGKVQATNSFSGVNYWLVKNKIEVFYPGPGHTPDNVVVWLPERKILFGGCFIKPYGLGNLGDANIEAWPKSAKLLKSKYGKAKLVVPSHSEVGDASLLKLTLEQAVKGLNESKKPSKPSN

CC(C)(C)C(C(=O)O)[C@H](Cc1ccc(C2CCNC2)nc1)c1nnn[nH]1.O=C(O)C(F)(F)F (stereo partly drawn) [Example 430, 3-(5-((2S)-3-carboxy-4,4-dimethyl-2-(1H-tetrazol-5-yl)pentyl)pyridin-2-yl)pyrrolidin-1-ium 2,2,2-trifluoroacetate]
IC50 (VIM-1): 0.0526 µM
IC50 (NDM-1): 0.62 µM
IC50 (IMP-1): 0.544 µM
NDM1 EC30016 MITC95 [1]: 12.5 µM
IMP1 SM5741 MITC95 [2]: 25 µM
VIM1 KP599644 MITC95 [3]: 25 µM

CC(C)(C)[C@H](C(=O)O)[C@H](Cc1ccc(C2CCNC2)cc1)c1nnn[nH]1.O=C(O)C(F)(F)F (stereo partly drawn) [Example 431, 3-(4-((2S,3R)-3-carboxy-4,4-dimethyl-2-(1H-tetrazol-5-yl)pentyl)phenyl)pyrrolidin-1-ium 2,2,2-trifluoroacetate]
IC50 (VIM-1): 0.0166 µM
IC50 (NDM-1): 0.0717 µM
IC50 (IMP-1): 0.0324 µM
NDM1 EC30016 MITC95 [1]: 6.25 µM
IMP1 SM5741 MITC95 [2]: 2.344 µM
VIM1 KP599644 MITC95 [3]: 12.5 µM

CCC[C@H](C(=O)O)[C@H](Cc1ccc(C2(O)CCNC2)cc1)c1nnn[nH]1.O=C(O)C(F)(F)F (stereo partly drawn) [Example 432, 3-(4-((2S,3S)-3-carboxy-2-(1H-tetrazol-5-yl)hexyl)phenyl)-3-hydroxypyrrolidin-1-ium 2,2,2-trifluoroacetate]
IC50 (VIM-1): 0.00558 µM
IC50 (NDM-1): 0.141 µM
IC50 (IMP-1): 1.01 µM
NDM1 EC30016 MITC95 [1]: 9.375 µM
IMP1 SM5741 MITC95 [2]: 12.5 µM
VIM1 KP599644 MITC95 [3]: 12.5 µM

O=C(O)[C@@H](CCCC1CCNCC1)[C@H](Cc1ccc(C2=CCNC2)cc1)c1nnn[nH]1 [Example 433, (S)-2-((S)-2-(4-(2,5-dihydro-1H-pyrrol-3-yl)phenyl)-1-(1H-tetrazol-5-yl)ethyl)-5-(piperidin-4-yl)pentanoic acid compound with 222,-trifluroacetic acid (1:2)]
IC50 (VIM-1): 0.0101 µM
IC50 (NDM-1): 0.0869 µM
IC50 (IMP-1): 2 µM
NDM1 EC30016 MITC95 [1]: 12.5 µM
IMP1 SM5741 MITC95 [2]: 100 µM
VIM1 KP599644 MITC95 [3]: 12.5 µM

O=C(O)[C@@H](CCCC1CCNCC1)[C@H](Cc1ccc(C2CCNC2)cc1)c1nnn[nH]1 (stereo partly drawn) [Example 434, (2S)-5-(piperidin-4-yl)-2-((1S)-2-(4-(pyrrolidin-3-yl)phenyl)-1-(1H-tetrazol-5-yl)ethyl)pentanoic acid 2,2,2-trifluoroacetate (1:2)]
IC50 (VIM-1): 0.0166 µM
IC50 (NDM-1): 0.0679 µM
IC50 (IMP-1): 2 µM
NDM1 EC30016 MITC95 [1]: 12.5 µM
IMP1 SM5741 MITC95 [2]: 100 µM
VIM1 KP599644 MITC95 [3]: 25 µM

Nc1ccc(C[C@H](c2nnn[nH]2)[C@H](CC(F)(F)F)C(=O)O)cn1 [Example 435, (S)-2-((S)-2-(6-aminopyridin-3-yl)-1-(1H-tetrazol-5-yl)ethyl)-4,4,4-trifluorobutanoic acid]
IC50 (VIM-1): 0.0136 µM
IC50 (NDM-1): 0.432 µM
IC50 (IMP-1): 7.74 µM
NDM1 EC30016 MITC95 [1]: 0.7813 µM
IMP1 SM5741 MITC95 [2]: 50 µM
VIM1 KP599644 MITC95 [3]: 2.344 µM

O=C(O)[C@@H](CC(F)(F)F)[C@H](Cc1ccc(NCCO)nc1)c1nnn[nH]1 [Example 436, (S)-4,4,4-trifluoro-2-((S)-2-(6-((2-hydroxyethyl)amino)pyridin-3-yl)-1-(1H-tetrazol-5-yl)ethyl)butanoic acid]
IC50 (VIM-1): 0.054 µM
IC50 (NDM-1): 1.05 µM
IC50 (IMP-1): 8.29 µM
NDM1 EC30016 MITC95 [1]: 2.344 µM
IMP1 SM5741 MITC95 [2]: 100 µM
VIM1 KP599644 MITC95 [3]: 25 µM

CCC[C@H](C(=O)O)[C@H](Cc1ccc2c(c1)CNC2)c1nnn[nH]1 [Example 437, (S)-2-((S)-2-(isoindolin-5-yl)-1-(1H-tetrazol-5-yl)ethyl)pentanoic acid compound with 2,2,2-trifluoroacetic acid (1:1)]
IC50 (VIM-1): 0.00173 µM
IC50 (NDM-1): 0.533 µM
IC50 (IMP-1): 11.4 µM
NDM1 EC30016 MITC95 [1]: 4.688 µM
IMP1 SM5741 MITC95 [2]: 150 µM
VIM1 KP599644 MITC95 [3]: 6.25 µM

CC(C)C[C@H](C(=O)O)[C@H](Cc1ccc(CCN2CCCCC2=O)c(F)c1)c1nn[nH]n1 [Example 438, (S)-2-((S)-2-(3-fluoro-4-(2-(2-oxopiperidin-1-yl)ethyl)phenyl)-1-(2H-tetrazol-5-yl)ethyl)-4-methylpentanoic acid]
IC50 (VIM-1): 0.00157 µM
IC50 (NDM-1): 0.0134 µM
IC50 (IMP-1): 0.00484 µM
NDM1 EC30016 MITC95 [1]: 25 µM
IMP1 SM5741 MITC95 [2]: 1.172 µM
VIM1 KP599644 MITC95 [3]: 75 µM

CC(C)C[C@H](C(=O)O)[C@H](Cc1ccc(CN2CCC(O)C2)c(F)c1)c1nn[nH]n1.O=C(O)C(F)(F)F (stereo partly drawn) [Example 439, 5-((2S,3S)-3-carboxy-1-(3-fluoro-4-((3-hydroxypyrrolidin-1-yl)methyl)phenyl)-5-methylhexan-2-yl)-2H-tetrazol-3-ium 2,2,2-trifluoroacetate]
IC50 (VIM-1): 0.00432 µM
IC50 (NDM-1): 0.225 µM
IC50 (IMP-1): 0.483 µM
NDM1 EC30016 MITC95 [1]: 31.25 µM
IMP1 SM5741 MITC95 [2]: 37.5 µM
VIM1 KP599644 MITC95 [3]: 37.5 µM

CC(C)C[C@H](C(=O)O)[C@H](Cc1ccc(CCCN)c(F)c1)c1nn[nH]n1.O=C(O)C(F)(F)F [Example 440, 5-((2S,3S)-1-(4-(3-aminopropyl)-3-fluorophenyl)-3-carboxy-5-methylhexan-2-yl)-2H-tetrazol-3-ium 2,2,2-trifluoroacetate]
IC50 (VIM-1): 0.00162 µM
IC50 (NDM-1): 0.0375 µM
IC50 (IMP-1): 0.124 µM
NDM1 EC30016 MITC95 [1]: 6.25 µM
IMP1 SM5741 MITC95 [2]: 6.25 µM
VIM1 KP599644 MITC95 [3]: 12.5 µM

CC(C)C[C@H](C(=O)O)[C@H](Cc1ccc(COCCN2CCNCC2)c(F)c1)c1nn[nH]n1.O=C(O)C(F)(F)F [Example 441, 5-((2S,3S)-3-carboxy-1-(3-fluoro-4-((2-(piperazin-1-yl)ethoxy)methyl)phenyl)-5-methylhexan-2-yl)-4422H-tetrazol-3-ium 2,2,2-trifluoroacetate]
IC50 (VIM-1): 0.0197 µM
IC50 (NDM-1): 0.113 µM
IC50 (IMP-1): 0.214 µM
NDM1 EC30016 MITC95 [1]: 25 µM
IMP1 SM5741 MITC95 [2]: 18.75 µM
VIM1 KP599644 MITC95 [3]: 50 µM

CC(C)C[C@H](C(=O)O)[C@H](Cc1ccc(COCC2CCNCC2)c(F)c1)c1nn[nH]n1.O=C(O)C(F)(F)F [Example 442, 5-((2S,3S)-3-carboxy-1-(3-fluoro-4-((piperidin-4-ylmethoxy)methyl)phenyl)-5-methylhexan-2-yl)-2H-tetrazol-3-ium 2,2,2-trifluoroacetate]
IC50 (VIM-1): 0.00873 µM
IC50 (NDM-1): 0.0747 µM
IC50 (IMP-1): 0.11 µM
NDM1 EC30016 MITC95 [1]: 12.5 µM
IMP1 SM5741 MITC95 [2]: 6.25 µM
VIM1 KP599644 MITC95 [3]: 25 µM

CC(C)C[C@H](C(=O)O)[C@H](Cc1ccc(CN(C)C)c(F)c1)c1nn[nH]n1.O=C(O)C(F)(F)F [Example 443, 1-(4-((2S,3S)-3-carboxy-5-methyl-2-(2H-tetrazol-5-yl)hexyl)-2-fluorophenyl)-N,N-dimethylmethanaminium 2,2,2-trifluoroacetate]
IC50 (VIM-1): 0.00429 µM
IC50 (NDM-1): 0.298 µM
IC50 (IMP-1): 1.06 µM
NDM1 EC30016 MITC95 [1]: 12.5 µM
IMP1 SM5741 MITC95 [2]: 37.5 µM
VIM1 KP599644 MITC95 [3]: 25 µM

CC(C)C[C@H](C(=O)O)[C@H](Cc1ccc(CN2CCC(N)CC2)c(F)c1)c1nn[nH]n1.O=C(O)C(F)(F)F [Example 444, 1-(4-((2S,3S)-3-carboxy-5-methyl-2-(2H-tetrazol-5-yl)hexyl)-2-fluorobenzyl)piperidin-4-aminium 2,2,2-trifluoroacetate]
IC50 (VIM-1): 0.0765 µM
IC50 (NDM-1): 0.0829 µM
IC50 (IMP-1): 0.216 µM
NDM1 EC30016 MITC95 [1]: 9.375 µM
IMP1 SM5741 MITC95 [2]: 12.5 µM
VIM1 KP599644 MITC95 [3]: 25 µM

CC(C)C[C@H](C(=O)O)[C@H](Cc1ccc(CCN)c(F)c1)c1nn[nH]n1.O=C(O)C(F)(F)F [Example 445, 2-(4-((2S,3S)-3-carboxy-5-methyl-2-(2H-tetrazol-5-yl)hexyl)-2-fluorophenyl)ethanaminium 2,2,2-trifluoroacetate]
IC50 (VIM-1): 0.00198 µM
IC50 (NDM-1): 0.281 µM
IC50 (IMP-1): 0.693 µM
NDM1 EC30016 MITC95 [1]: 9.375 µM
IMP1 SM5741 MITC95 [2]: 25 µM
VIM1 KP599644 MITC95 [3]: 12.5 µM

CC(C)C[C@H](C(=O)O)[C@H](Cc1ccc(CN2CCNCC2)c(F)c1)c1nn[nH]n1.O=C(O)C(F)(F)F [Example 446, 4-(4-((2S,3S)-3-carboxy-5-methyl-2-(2H-tetrazol-5-yl)hexyl)-2-fluorobenzyl)piperazin-1-ium 2,2,2-trifluoroacetate]
IC50 (VIM-1): 0.00694 µM
IC50 (NDM-1): 0.17 µM
IC50 (IMP-1): 0.38 µM
NDM1 EC30016 MITC95 [1]: 12.5 µM
IMP1 SM5741 MITC95 [2]: 18.75 µM
VIM1 KP599644 MITC95 [3]: 25 µM

CC(C)C[C@H](C(=O)O)[C@H](Cc1ccc(COC2CCNCC2)c(F)c1)c1nn[nH]n1.O=C(O)C(F)(F)F [Example 447, 4-((4-((2S,3S)-3-carboxy-5-methyl-2-(2H-tetrazol-5-yl)hexyl)-2-fluorobenzyl)oxy)piperidin-1-ium 2,2,2-trifluoroacetate]
IC50 (VIM-1): 0.00635 µM
IC50 (NDM-1): 0.104 µM
IC50 (IMP-1): 0.163 µM
NDM1 EC30016 MITC95 [1]: 9.375 µM
IMP1 SM5741 MITC95 [2]: 6.25 µM
VIM1 KP599644 MITC95 [3]: 25 µM
